Measurements as given in patent US20120232070A1, “Use of Indole Derivatives as Nurr-1 Activators for the Application Thereof as a Medicament for the Treatment of Parkinson's Disease” (Laboratoires Fournier SA, priority 2009, published 2012).

Columns and labels:
[1] = molecular target: hNurr1_RXRγFL (NURR1/RXRγ heterodimer) (Homo sapiens, UniProt P43354+P48443); test: Transactivation assay in Cos-7 cells, NURR-1-Gal4 / RXRγ, luciferase reporter; assay type: cell-based; conditions: for Emax: COS-7, read-out: hNurr1_RXRγFL Eff (%), efficacy in % relative to the reference XCT0135908 at 2·10^−5 M (=100%); for EC50: Cos-7 cells, overnight incubation
Chain of hNurr1_RXRγFL (NURR1/RXRγ heterodimer) (P43354 328-598): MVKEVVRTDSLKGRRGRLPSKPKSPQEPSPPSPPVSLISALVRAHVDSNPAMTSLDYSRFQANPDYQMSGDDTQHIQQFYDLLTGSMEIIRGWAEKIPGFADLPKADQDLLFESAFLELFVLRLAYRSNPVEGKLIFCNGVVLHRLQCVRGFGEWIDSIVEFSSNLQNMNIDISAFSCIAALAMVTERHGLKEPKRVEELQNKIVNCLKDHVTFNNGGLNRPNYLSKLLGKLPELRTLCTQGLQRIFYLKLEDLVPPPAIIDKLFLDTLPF
Chain of hNurr1_RXRγFL (NURR1/RXRγ heterodimer) (P48443 whole entry, the tested form may be a part): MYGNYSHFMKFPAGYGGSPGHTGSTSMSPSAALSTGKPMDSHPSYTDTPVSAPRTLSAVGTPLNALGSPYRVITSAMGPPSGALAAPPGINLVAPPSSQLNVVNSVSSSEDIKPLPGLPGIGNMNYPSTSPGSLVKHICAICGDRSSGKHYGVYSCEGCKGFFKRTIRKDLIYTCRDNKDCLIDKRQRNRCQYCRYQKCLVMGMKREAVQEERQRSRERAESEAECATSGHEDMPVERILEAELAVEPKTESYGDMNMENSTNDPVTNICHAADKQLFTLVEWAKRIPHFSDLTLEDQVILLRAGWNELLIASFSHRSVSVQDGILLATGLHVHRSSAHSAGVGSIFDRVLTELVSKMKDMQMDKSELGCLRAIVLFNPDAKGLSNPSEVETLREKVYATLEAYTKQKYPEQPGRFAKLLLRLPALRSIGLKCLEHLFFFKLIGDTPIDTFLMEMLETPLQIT
Outline: (§1)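 Cos-7 cells co-transfected with human NURR-1-Gal4 chimera, human RXRα or RXRγ, and 5Gal4pGL3-TK-Luc reporter; compounds added at 10^−4 to 3·10^−10 M final, overnight incubation, luciferase read. Induction over each heterodimer's baseline expressed as % of reference RXR agonist XCT0135908 (2·10^−5 M) taken as 100%.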

[2] = molecular target: hNurr1_RXRαFL (NURR1/RXRα heterodimer) (Homo sapiens, UniProt P19793+P43354); test: Transactivation assay in Cos-7 cells, NURR-1-Gal4 / RXRα, luciferase reporter; assay type: cell-based; conditions: for Emax: COS-7, read-out: hNurr1_RXRαFL Eff (%), efficacy in % relative to the reference XCT0135908 at 2·10^−5 M (=100%); for EC50: Cos-7 cells, overnight incubation
Chain of hNurr1_RXRαFL (NURR1/RXRα heterodimer) (P19793 whole entry, the tested form may be a part): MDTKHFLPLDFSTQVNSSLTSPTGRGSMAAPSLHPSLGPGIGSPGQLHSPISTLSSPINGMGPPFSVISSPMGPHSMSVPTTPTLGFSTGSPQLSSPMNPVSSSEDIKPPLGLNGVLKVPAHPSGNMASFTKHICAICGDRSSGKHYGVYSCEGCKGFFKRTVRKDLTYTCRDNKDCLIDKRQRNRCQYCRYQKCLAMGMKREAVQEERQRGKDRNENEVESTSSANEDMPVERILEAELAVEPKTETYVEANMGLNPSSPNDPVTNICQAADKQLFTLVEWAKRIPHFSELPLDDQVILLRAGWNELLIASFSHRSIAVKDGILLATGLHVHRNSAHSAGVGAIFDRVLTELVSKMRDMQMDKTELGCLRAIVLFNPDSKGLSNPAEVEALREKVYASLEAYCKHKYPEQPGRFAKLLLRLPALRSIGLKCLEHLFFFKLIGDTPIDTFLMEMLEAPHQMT
Chain of hNurr1_RXRαFL (NURR1/RXRα heterodimer) (P43354 328-598): as the sequence (P43354 328-598) above
Outline: as §1

Structure (SMILES) | Emax [1] | EC50 [1] | Emax [2] | EC50 [2]
CCC(C)(C)c1ccc(S(=O)(=O)n2c(Cc3ccc(C(=O)O)cc3)cc3cc(C(F)(F)F)ccc32)cc1 [Example 12, 4-[[1-[[4-(1,1-dimethylpropyl)phenyl]sulfonyl]-5-(trifluoromethyl)-1H-indol-2-yl]methyl]benzoic acid] | 45% | 148 nM | 54% | 113 nM
Cc1cc(C)n(-c2ccc(S(=O)(=O)n3c(Cc4ccc(C(=O)O)cc4)cc4cc(C(F)(F)F)ccc43)cc2)n1 [Example 131, 4-[[1-[4-(3,5-dimethyl-pyrazol-1-yl)-phenylsulfonyl]-5-(trifluoromethyl)-1H-indol-2-yl]methyl]benzoic acid] | 21% | 1480 nM | 30% | 603 nM
O=C(O)c1ccc(Cc2cc3cc(Cl)ccc3n2S(=O)(=O)c2ccc3ccccc3c2)cc1 [Example 163, 4-[[5-chloro-1-(2-naphthalenylsulfonyl)-1H-indol-2-yl]methyl]benzoic acid] | 34% | 933 nM | 53% | 427 nM
CC(C)c1ccc(S(=O)(=O)n2c(Cc3ccc(C(=O)O)cc3)cc3cc(C(F)(F)F)ccc32)cc1 [Example 43, 4-[[1-[[4-(1-methylethyl)phenyl]sulfonyl]-5-(trifluoromethyl)-1H-indol-2-yl]methyl]benzoic acid] | 79% | 616 nM | 73% | 291 nM
CC(C)CCc1ccc(S(=O)(=O)n2c(Cc3ccc(C(=O)O)cc3)cc3cc(C(F)(F)F)ccc32)cc1 [Example 128, 4-[[1-[4-(3-methyl-butyl)-phenylsulfonyl]-5-(trifluoromethyl)-1H-indol-2-yl]methyl]benzoic acid] | 36% | 1590 nM | 44% | 337 nM
COC(=O)c1ccc(Cc2cc3cccc(F)c3n2S(=O)(=O)c2cccc(C(C)(C)C)c2)cc1 [Example 113, 4-[[1-[[3-(1,1-dimethylethyl)phenyl]sulfonyl]-7-fluoro-1H-indol-2-yl]methyl]benzoic acid, methyl ester] | 97% | 1860 nM | 103% | > 10000 nM
Cc1ccc2c(c1)cc(Cc1ccc(C(=O)O)cc1)n2S(=O)(=O)c1cccc(C(C)(C)C)c1 [Example 118, 4-[[1-[[3-(1,1-dimethylethyl)phenyl]sulfonyl]-5-(methyl)-1H-indol-2-yl]methyl]benzoic acid] | 65% | 473 nM | 75% | 279 nM
O=C(O)c1ccc(Cc2cc3cc(Cl)ccc3n2S(=O)(=O)c2ccc(F)c(F)c2)cc1 [Example 153, 4-[[1-[3-fluoro-4-fluoro-phenylsulfonyl]-5-(chloro)-1H-indol-2-yl]methyl]benzoic acid] | 63% | 1390 nM | 85% | 851 nM
CC1(C)CCc2cc(S(=O)(=O)n3c(Cc4ccc(C(=O)O)cc4)cc4cc(C(F)(F)F)ccc43)ccc2O1 [Example 132, 4-[[1-[(3,4-dihydro-2,2-dimethyl-2H-1-benzopyran-6-yl)sulfonyl]-5-(trifluoromethyl)-1H-indol-2-yl]methyl]benzoic acid] | 28% | 352 nM | 45% | 221 nM
CC(C)(C)c1cccc(S(=O)(=O)n2c(Cc3ccc(S(N)(=O)=O)cc3)cc3cc(C(F)(F)F)ccc32)c1 [Example 198, 4-[[1-[[3-(1,1-dimethylethyl)-phenyl]sulfonyl]-5-trifluoromethyl-1H-indol-2-yl]methyl]-benzenesulfonamide] | 86% | > 10000 nM | 84% | 7940 nM
CC(C)(C)c1cccc(S(=O)(=O)n2c(C(=O)c3ccc(C(=O)O)cc3)cc3cc(C(F)(F)F)ccc32)c1 [Example 219] | 32% | 3200 nM | 57% | 1130 nM
CC(C)COc1ccc(S(=O)(=O)n2c(Cc3ccc(C(=O)O)cc3)cc3cc(C(F)(F)F)ccc32)cc1 [Example 127, 4-[[1-[4-isobutoxy-phenylsulfonyl]-5-(trifluoromethyl)-1H-indol-2-yl]methyl]benzoic acid] | 45% | 575 nM | 48% | 263 nM
COc1ccc(S(=O)(=O)n2c(Cc3ccc(C(=O)O)cc3)cc3cc(C(F)(F)F)ccc32)cc1 [Example 138, 4-[[1-[4-methoxy-phenylsulfonyl]-5-(trifluoromethyl)-1H-indol-2-yl]methyl]benzoic acid] | 28% | 583 nM | 41% | 344 nM
O=C(O)c1ccc(Cc2cc3cc(Cl)ccc3n2S(=O)(=O)c2ccc3c(c2)OCCO3)s1 [Example 77, 5-[[5-chloro-1-[(2,3-dihydro-benzo[1,4]dioxin-6-yl)sulfonyl]-1H-indol-2-yl]methyl]-thiophene-2-carboxylic acid] | 38% | 457 nM | 74% | 224 nM
O=C(O)c1ccc(Cc2cc3cc(C(F)(F)F)ccc3n2S(=O)(=O)c2ccc(Oc3ccccc3)cc2)cc1 [Example 144, 4-[[1-[4-phenoxy-phenylsulfonyl]-5-(trifluoromethyl)-1H-indol-2-yl]methyl]benzoic acid] | 19% | > 10000 nM | 30% | 839 nM
CN1CCOc2ccc(S(=O)(=O)n3c(Cc4ccc(C(=O)O)cc4)cc4cc(C(F)(F)F)ccc43)cc21 [Example 45, 4-[[1-[(3,4-dihydro-4-methyl-2H-1,4-benzoxazin-6-yl)sulfonyl]-5-(trifluoromethyl)-1H-indol-2-yl]methyl]benzoic acid] | 50% | 201 nM | 70% | 97 nM
COC(=O)c1ccc(Cc2cc3ccccc3n2S(=O)(=O)c2cccc(C(C)(C)C)c2)cc1 [Example 194, 4-[[1-[[3-(1,1-dimethylethyl)phenyl]sulfonyl]-1H-indol-2-yl]methyl]-benzoic acid, methyl ester] | 36% | 316 nM | 42% | 344 nM
CC(C)(C)c1cccc(S(=O)(=O)n2c(Cc3ccc(C=C4SC(=S)NC4=O)cc3)cc3cc(C(F)(F)F)ccc32)c1 [Example 223] | 30% | 3390 nM | 72% | 1320 nM
CC(C)(C)c1cccc(S(=O)(=O)n2c(Cc3ccc(-c4noc(=O)[nH]4)cc3)cc3cc(C(F)(F)F)ccc32)c1 [Example 222, 3-[[4-[1-[[3-(1,1-dimethylethyl)phenyl]sulfonyl]-5-(trifluoromethyl)-1H-indol-2-yl]methyl]-phenyl]-4H-[1,2,4]oxadiazol-5-one] | 55% | 676 nM | 62% | 367 nM
CC(C)(C)c1cccc(S(=O)(=O)n2c(Cc3ccc(CNS(C)(=O)=O)cc3)cc3cc(C(F)(F)F)ccc32)c1 [Example 227, N-[4-[[1-[[3-(1,1-dimethylethyl)phenyl]sulfonyl]-5-(trifluoromethyl)-1H-indol-2-yl]methyl]benzyl]-methanesulfonamide] | 86% | 316 nM | 73% | 219 nM
